# Assay results as given in PubChem BioAssay (NCI).
#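 Results reflect a 48-hour exposure of cells in 96-well plates to compound at five concentrations. At the GI50, growth is halved. Definition used: TGI = concentration required for complete inhibition of growth.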 *1 amine or outer side, *2 acyl side, *3 side chain or, on linkers, in order; H or OH if unused. Where a SMILES comes first, the peptide text is derived from it. Bridges are numbered along the chain shown (N, C = ends). [ ]: non-standard residue; d: D form. The star is where a group is joined. Phe(3-Me) = Cc1cccc(C[C@H](N)C(=O)O)c1; NH(4-Cl-2-F-phenyl) = Fc1cc(Cl)ccc1N*; Pro(4R-Me) = C[C@H]1CN[C@H](C(=O)O)C1; Hyp = O=C(O)[C@@H]1C[C@@H](O)CN1; aThr = C[C@H](O)[C@H](N)C(=O)O; Pip = O=C(O)[C@@H]1CCCCN1; CO = O=C([*:1])[*:2]
# Tests used:
# Assay in all cases: DTP human tumour cell line panel, 48 h
# [1] = tested on: OVCAR-8 ovarian
# [2] = tested on: SK-OV-3 ovarian
# [3] = tested on: HS 578T breast
# [4] = tested on: UACC-62 melanoma
# [5] = tested on: SK-MEL-2 melanoma
# [6] = tested on: MOLT-4 leukemia
# [7] = tested on: OVCAR-4 ovarian
# [8] = tested on: MDA-MB-231 breast
# [9] = tested on: HCT-116 colon
# [10] = tested on: UACC-257 melanoma
# [11] = tested on: MDA-MB-435
# [12] = tested on: HT29 colon
# [13] = tested on: 786-0 renal
# [14] = tested on: SF-295 CNS
# [15] = tested on: SF-268 CNS
# [16] = tested on: LOX IMVI melanoma
# [17] = tested on: OVCAR-5 ovarian
# [18] = tested on: NCI-H460 lung
# [19] = tested on: SN12C renal
# [20] = tested on: U251 CNS
# [21] = tested on: TK-10 renal
# [22] = tested on: COLO 205 colon
# [23] = tested on: IGROV1 ovarian
# [24] = tested on: NCI/ADR-RES ovarian
# [25] = tested on: SF-539 CNS
# [26] = tested on: SR leukemia
# [27] = tested on: OVCAR-3 ovarian
# [28] = tested on: SK-MEL-28 melanoma
# [29] = tested on: HL-60(TB) leukemia
# [30] = tested on: EKVX NSCLC
# [31] = tested on: ACHN renal
# [32] = tested on: SW-620 colon
# [33] = tested on: PC-3 prostate
# [34] = tested on: BT-549 breast
# [35] = tested on: SNB-75 CNS
# [36] = tested on: DU-145 prostate
# [37] = tested on: CCRF-CEM leukemia
# [38] = tested on: A549 NSCLC
# [39] = tested on: HOP-62 NSCLC
# [40] = tested on: RXF 393 renal
# [41] = tested on: K-562 leukemia
# [42] = tested on: NCI-H226 lung
# [43] = tested on: NCI-H522 lung
# [44] = tested on: HCT-15 colon
# [45] = tested on: NCI-H23 lung
# [46] = tested on: CAKI-1 renal
# [47] = tested on: HOP-92 NSCLC
# [48] = tested on: RPMI-8226 leukemia
# [49] = tested on: HCC-2998 colon
# [50] = tested on: A498 renal
# [51] = tested on: T-47D breast
# [52] = tested on: M14 melanoma
# [53] = tested on: UO-31 renal
# [54] = tested on: SK-MEL-5 melanoma
# [55] = tested on: KM12 colon
# [56] = tested on: MALME-3M melanoma
# [57] = tested on: MCF7 breast
# [58] = tested on: SNB-19 CNS
smiles,measurement,setting,value
Cc1cccc(C[C@H](NC(=O)Nc2ccc(Cl)cc2F)C(=O)N[C@@H]2C(=O)N3C[C@H](O)C[C@H]3C(=O)N3CCCC[C@H]3C(=O)N[C@@H](C)C(=O)N3C[C@H](C)C[C@H]3C(=O)O[C@H]2C)c1 ({NH(4-Cl-2-F-phenyl)-CO}-[Phe(3-Me)][aThr][Hyp][Pip]A[Pro(4R-Me)]; ester 2-C),GI50,[1],435 nM
same,TGI,[1],15600 nM
same,GI50,[2],501 nM
same,TGI,[2],3520 nM
same,GI50,[3],455 nM
same,TGI,[3],3580 nM
same,GI50,[4],505 nM
same,TGI,[4],1960 nM
same,GI50,[5],635 nM
same,TGI,[5],2370 nM
same,GI50,[6],876 nM
same,TGI,[6],6280 nM
same,GI50,[7],324 nM
same,TGI,[7],2680 nM
same,GI50,[8],429 nM
same,TGI,[8],1710 nM
same,GI50,[9],404 nM
same,TGI,[9],1660 nM
same,GI50,[10],388 nM
same,TGI,[10],2200 nM
same,GI50,[11],438 nM
same,TGI,[11],1740 nM
same,GI50,[12],547 nM
same,TGI,[12],3060 nM
same,GI50,[13],1280 nM
same,TGI,[13],7690 nM
same,GI50,[14],416 nM
same,TGI,[14],1800 nM
same,GI50,[15],499 nM
same,TGI,[15],4020 nM
same,GI50,[16],670 nM
same,TGI,[16],2160 nM
same,GI50,[17],554 nM
same,TGI,[17],2360 nM
same,GI50,[18],398 nM
same,TGI,[18],2460 nM
same,GI50,[19],393 nM
same,TGI,[19],4600 nM
same,GI50,[20],440 nM
same,TGI,[20],7770 nM
same,GI50,[21],1780 nM
same,TGI,[21],10100 nM
same,GI50,[22],344 nM
same,TGI,[22],1360 nM
same,GI50,[23],919 nM
same,TGI,[23],2980 nM
same,GI50,[24],11000 nM
same,TGI,[24],33400 nM
same,GI50,[25],733 nM
same,TGI,[25],2290 nM
same,GI50,[26],546 nM
same,TGI,[26],3550 nM
same,GI50,[27],438 nM
same,TGI,[27],1750 nM
same,GI50,[28],728 nM
same,TGI,[28],2080 nM
same,GI50,[29],322 nM
same,TGI,[29],1790 nM
same,GI50,[30],860 nM
same,TGI,[30],8040 nM
same,GI50,[31],2110 nM
same,TGI,[31],6160 nM
same,GI50,[32],595 nM
same,TGI,[32],10900 nM
same,GI50,[33],365 nM
same,TGI,[33],1850 nM
same,GI50,[34],540 nM
same,TGI,[34],2740 nM
same,GI50,[35],544 nM
same,TGI,[35],4800 nM
same,GI50,[36],511 nM
same,TGI,[36],9840 nM
same,GI50,[37],520 nM
same,TGI,[37],12000 nM
same,GI50,[38],505 nM
same,TGI,[38],12100 nM
same,GI50,[39],484 nM
same,TGI,[39],3620 nM
same,GI50,[40],1310 nM
same,TGI,[40],2960 nM
same,GI50,[41],221 nM
same,TGI,[41],> 33700 nM
same,GI50,[42],511 nM
same,TGI,[42],2630 nM
same,GI50,[43],464 nM
same,TGI,[43],2600 nM
same,GI50,[44],1930 nM
same,TGI,[44],4340 nM
same,GI50,[45],551 nM
same,TGI,[45],3720 nM
same,GI50,[46],807 nM
same,TGI,[46],5580 nM
same,GI50,[47],525 nM
same,TGI,[47],3140 nM
same,GI50,[48],128 nM
same,TGI,[48],1630 nM
same,GI50,[49],468 nM
same,TGI,[49],1770 nM
same,GI50,[50],327 nM
same,TGI,[50],2150 nM
same,GI50,[51],415 nM
same,TGI,[51],4840 nM
same,GI50,[52],487 nM
same,TGI,[52],2190 nM
same,GI50,[53],2140 nM
same,TGI,[53],7680 nM
same,GI50,[54],492 nM
same,TGI,[54],1700 nM
same,GI50,[55],788 nM
same,TGI,[55],2490 nM
same,GI50,[56],553 nM
same,TGI,[56],2190 nM
same,GI50,[57],391 nM
same,TGI,[57],3000 nM
same,GI50,[58],381 nM
same,TGI,[58],11300 nM
